Measurements: ChEMBL document CHEMBL3885881, “DrugMatrix”

Species on record: Rattus norvegicus
Assay: DrugMatrix - Regimen: Daily Repeat
Format: toxicity, organism-based, Sprague-Dawley
Parameters: regimen Daily Repeat, gender Male, age 6-8 weeks
Details: in vivo, po, route oral GAVAGE, vehicle 100 % WATER; for BASOPHIL / EOSINOPHIL / ERYTHROCYTE COUNT / HEMATOCRIT / HEMOGLOBIN / LEUKOCYTE COUNT / LYMPHOCYTE / MEAN CORPUSCULAR HEMOGLOBIN / MEAN CORPUSCULAR HEMOGLOBIN CONCENTRATION / MEAN CORPUSCULAR VOLUME / MONOCYTE / NEUTROPHIL / PLATELET COUNT: tissue Blood; for ALANINE AMINOTRANSFERASE / ALBUMIN / ALKALINE PHOSPHATASE / ASPARTATE AMINOTRANSFERASE / BLOOD UREA NITROGEN / CARBON DIOXIDE / CHLORIDE / CHOLESTEROL / CREATINE PHOSPHOKINASE / CREATININE / GLUCOSE / LACTATE DEHYDROGENASE / LIPASE / PHOSPHORUS / POTASSIUM / SODIUM / TOTAL BILIRUBIN / TOTAL PROTEIN / URIC ACID: tissue Plasma
[1] = 0 mg/kg, 96 h, dose level Control, time 4 day
[2] = 0 mg/kg, […], dose level Control, time 6 day
[3] = 0 mg/kg, […], dose level Control, time 14 day
[4] = 210 mg/kg, 96 h, dose level High, time 4 day
[5] = 210 mg/kg, […], dose level High, time 6 day
[6] = 210 mg/kg, […], dose level High, time 14 day

Structure (SMILES): OCC1CO1 (configuration not stated) [GLYCIDOL]
- BASOPHIL [1]: 0.47%
- EOSINOPHIL [1]: 0.58%
- ERYTHROCYTE COUNT [1]: 6.84 x10E6/uL
- HEMATOCRIT [1]: 44.27%
- HEMOGLOBIN [1]: 14.08 G/DL
- LEUKOCYTE COUNT [1]: 13.39 x10E3/uL
- LYMPHOCYTE [1]: 83.57%
- MEAN CORPUSCULAR HEMOGLOBIN [1]: 20.57 pg
- MEAN CORPUSCULAR HEMOGLOBIN CONCENTRATION [1]: 31.77 G/DL
- MEAN CORPUSCULAR VOLUME [1]: 64.68 fL
- MONOCYTE [1]: 1.92%
- NEUTROPHIL [1]: 12.95%
- PLATELET COUNT [1]: 1533.67 x10E3/uL
- ALANINE AMINOTRANSFERASE [1]: 28.17 u/L
- ALBUMIN [1]: 3.82 G/DL
- ALKALINE PHOSPHATASE [1]: 354.33 u/L
- ASPARTATE AMINOTRANSFERASE [1]: 73.83 u/L
- BLOOD UREA NITROGEN [1]: 16 mg/dL
- CARBON DIOXIDE [1]: 27.17 mmol/L
- CHLORIDE [1]: 104.83 MEQ/L
- CHOLESTEROL [1]: 83.33 mg/dL
- CREATINE PHOSPHOKINASE [1]: 288 u/L
- CREATININE [1]: 0.33 mg/dL
- GLUCOSE [1]: 181.33 mg/dL
- LACTATE DEHYDROGENASE [1]: 173.17 u/L
- LIPASE [1]: 17.67 u/L
- PHOSPHORUS [1]: 11.5 mg/dL
- POTASSIUM [1]: 6.8 MEQ/L
- SODIUM [1]: 147 MEQ/L
- TOTAL BILIRUBIN [1]: 0.35 mg/dL
- TOTAL PROTEIN [1]: 6.35 G/DL
- URIC ACID [1]: 1.55 mg/dL
- BASOPHIL [2]: 0.33%
- EOSINOPHIL [2]: 0.85%
- ERYTHROCYTE COUNT [2]: 6.98 x10E6/uL
- HEMATOCRIT [2]: 38.58%
- HEMOGLOBIN [2]: 14.25 G/DL
- LEUKOCYTE COUNT [2]: 11.01 x10E3/uL
- LYMPHOCYTE [2]: 85.07%
- MEAN CORPUSCULAR HEMOGLOBIN [2]: 20.47 pg
- MEAN CORPUSCULAR HEMOGLOBIN CONCENTRATION [2]: 31.45 G/DL
- MEAN CORPUSCULAR VOLUME [2]: 64.9 fL
- MONOCYTE [2]: 1.9%
- NEUTROPHIL [2]: 11.42%
- PLATELET COUNT [2]: 1289.67 x10E3/uL
- BASOPHIL [3]: 0.52%
- EOSINOPHIL [3]: 0.55%
- ERYTHROCYTE COUNT [3]: 7.72 x10E6/uL
- HEMATOCRIT [3]: 51.87%
- HEMOGLOBIN [3]: 15.32 G/DL
- LEUKOCYTE COUNT [3]: 16.2 x10E3/uL
- LYMPHOCYTE [3]: 85.13%
- MEAN CORPUSCULAR HEMOGLOBIN [3]: 19.85 pg
- MEAN CORPUSCULAR HEMOGLOBIN CONCENTRATION [3]: 29.52 G/DL
- MEAN CORPUSCULAR VOLUME [3]: 67.17 fL
- MONOCYTE [3]: 1.7%
- NEUTROPHIL [3]: 11.6%
- PLATELET COUNT [3]: 1104.17 x10E3/uL
- ALANINE AMINOTRANSFERASE [2]: 28.17 u/L
- ALBUMIN [2]: 3.78 G/DL
- ALKALINE PHOSPHATASE [2]: 385.33 u/L
- ASPARTATE AMINOTRANSFERASE [2]: 78 u/L
- BLOOD UREA NITROGEN [2]: 16.83 mg/dL
- CARBON DIOXIDE [2]: 26.67 mmol/L
- CHLORIDE [2]: 106.83 MEQ/L
- CHOLESTEROL [2]: 82.67 mg/dL
- CREATINE PHOSPHOKINASE [2]: 225.5 u/L
- CREATININE [2]: 0.27 mg/dL
- GLUCOSE [2]: 179.5 mg/dL
- LACTATE DEHYDROGENASE [2]: 98.33 u/L
- LIPASE [2]: 14.67 u/L
- PHOSPHORUS [2]: 12.28 mg/dL
- POTASSIUM [2]: 7.03 MEQ/L
- SODIUM [2]: 150.33 MEQ/L
- TOTAL BILIRUBIN [2]: 0.38 mg/dL
- TOTAL PROTEIN [2]: 6.45 G/DL
- URIC ACID [2]: 1.6 mg/dL
- ALANINE AMINOTRANSFERASE [3]: 37 u/L
- ALBUMIN [3]: 4.13 G/DL
- ALKALINE PHOSPHATASE [3]: 342 u/L
- ASPARTATE AMINOTRANSFERASE [3]: 71 u/L
- BLOOD UREA NITROGEN [3]: 16.5 mg/dL
- CARBON DIOXIDE [3]: 28.17 mmol/L
- CHLORIDE [3]: 104 MEQ/L
- CHOLESTEROL [3]: 70.67 mg/dL
- CREATINE PHOSPHOKINASE [3]: 287.67 u/L
- CREATININE [3]: 0.38 mg/dL
- GLUCOSE [3]: 150.17 mg/dL
- LACTATE DEHYDROGENASE [3]: 81.33 u/L
- LIPASE [3]: 16 u/L
- PHOSPHORUS [3]: 11.32 mg/dL
- POTASSIUM [3]: 6.22 MEQ/L
- SODIUM [3]: 147.33 MEQ/L
- TOTAL BILIRUBIN [3]: 0.43 mg/dL
- TOTAL PROTEIN [3]: 6.55 G/DL
- URIC ACID [3]: 1.38 mg/dL
- BASOPHIL [4]: 0.37%
- EOSINOPHIL [4]: 0.43%
- ERYTHROCYTE COUNT [4]: 6.84 x10E6/uL
- HEMATOCRIT [4]: 44.53%
- HEMOGLOBIN [4]: 13.97 G/DL
- LEUKOCYTE COUNT [4]: 11.04 x10E3/uL
- LYMPHOCYTE [4]: 82.73%
- MEAN CORPUSCULAR HEMOGLOBIN [4]: 20.43 pg
- MEAN CORPUSCULAR HEMOGLOBIN CONCENTRATION [4]: 31.4 G/DL
- MEAN CORPUSCULAR VOLUME [4]: 65.2 fL
- MONOCYTE [4]: 2.77%
- NEUTROPHIL [4]: 12.93%
- PLATELET COUNT [4]: 1402.67 x10E3/uL
- ALANINE AMINOTRANSFERASE [4]: 41.67 u/L
- ALBUMIN [4]: 3.9 G/DL
- ALKALINE PHOSPHATASE [4]: 368 u/L
- ASPARTATE AMINOTRANSFERASE [4]: 81.33 u/L
- BLOOD UREA NITROGEN [4]: 15.33 mg/dL
- CARBON DIOXIDE [4]: 26 mmol/L
- CHLORIDE [4]: 105.33 MEQ/L
- CHOLESTEROL [4]: 107.33 mg/dL
- CREATINE PHOSPHOKINASE [4]: 232 u/L
- CREATININE [4]: 0.4 mg/dL
- GLUCOSE [4]: 184 mg/dL
- LACTATE DEHYDROGENASE [4]: 181 u/L
- LIPASE [4]: 21 u/L
- PHOSPHORUS [4]: 10.67 mg/dL
- POTASSIUM [4]: 6.63 MEQ/L
- SODIUM [4]: 147.33 MEQ/L
- TOTAL BILIRUBIN [4]: 0.37 mg/dL
- TOTAL PROTEIN [4]: 6.6 G/DL
- URIC ACID [4]: 1.53 mg/dL
- BASOPHIL [5]: 0.33%
- EOSINOPHIL [5]: 0.33%
- ERYTHROCYTE COUNT [5]: 6.72 x10E6/uL
- HEMATOCRIT [5]: 43.03%
- HEMOGLOBIN [5]: 13.67 G/DL
- LEUKOCYTE COUNT [5]: 11.41 x10E3/uL
- LYMPHOCYTE [5]: 88.93%
- MEAN CORPUSCULAR HEMOGLOBIN [5]: 20.37 pg
- MEAN CORPUSCULAR HEMOGLOBIN CONCENTRATION [5]: 31.77 G/DL
- MEAN CORPUSCULAR VOLUME [5]: 64.1 fL
- MONOCYTE [5]: 2.73%
- NEUTROPHIL [5]: 6.93%
- PLATELET COUNT [5]: 1416.33 x10E3/uL
- BASOPHIL [6]: 0.43%
- EOSINOPHIL [6]: 1.53%
- ERYTHROCYTE COUNT [6]: 6.88 x10E6/uL
- HEMATOCRIT [6]: 45.62%
- HEMOGLOBIN [6]: 13.7 G/DL
- LEUKOCYTE COUNT [6]: 12.42 x10E3/uL
- LYMPHOCYTE [6]: 88.5%
- MEAN CORPUSCULAR HEMOGLOBIN [6]: 19.93 pg
- MEAN CORPUSCULAR HEMOGLOBIN CONCENTRATION [6]: 30.02 G/DL
- MEAN CORPUSCULAR VOLUME [6]: 66.33 fL
- MONOCYTE [6]: 1.9%
- NEUTROPHIL [6]: 6.83%
- PLATELET COUNT [6]: 1312.75 x10E3/uL
- ALANINE AMINOTRANSFERASE [5]: 34 u/L
- ALBUMIN [5]: 3.93 G/DL
- ALKALINE PHOSPHATASE [5]: 398 u/L
- ASPARTATE AMINOTRANSFERASE [5]: 76.33 u/L
- BLOOD UREA NITROGEN [5]: 15.67 mg/dL
- CARBON DIOXIDE [5]: 24.33 mmol/L
- CHLORIDE [5]: 110 MEQ/L
- CHOLESTEROL [5]: 95.33 mg/dL
- CREATINE PHOSPHOKINASE [5]: 145 u/L
- CREATININE [5]: 0.3 mg/dL
- GLUCOSE [5]: 175.33 mg/dL
- LACTATE DEHYDROGENASE [5]: 95.33 u/L
- LIPASE [5]: 6 u/L
- PHOSPHORUS [5]: 11.3 mg/dL
- POTASSIUM [5]: 6.9 MEQ/L
- SODIUM [5]: 151.67 MEQ/L
- TOTAL BILIRUBIN [5]: 0.37 mg/dL
- TOTAL PROTEIN [5]: 6.67 G/DL
- URIC ACID [5]: 1.63 mg/dL
- ALANINE AMINOTRANSFERASE [6]: 34 u/L
- ALBUMIN [6]: 4.45 G/DL
- ALKALINE PHOSPHATASE [6]: 332.5 u/L
- ASPARTATE AMINOTRANSFERASE [6]: 55.5 u/L
- BLOOD UREA NITROGEN [6]: 17 mg/dL
- CARBON DIOXIDE [6]: 27 mmol/L
- CHLORIDE [6]: 105 MEQ/L
- CHOLESTEROL [6]: 100.75 mg/dL
- CREATINE PHOSPHOKINASE [6]: 116.5 u/L
- CREATININE [6]: 0.32 mg/dL
- GLUCOSE [6]: 136.5 mg/dL
- LACTATE DEHYDROGENASE [6]: 63.5 u/L
- LIPASE [6]: 9.75 u/L
- PHOSPHORUS [6]: 12.12 mg/dL
- POTASSIUM [6]: 6.47 MEQ/L
- SODIUM [6]: 148.25 MEQ/L
- TOTAL BILIRUBIN [6]: 0.35 mg/dL
- TOTAL PROTEIN [6]: 7.2 G/DL
- URIC ACID [6]: 1.62 mg/dL
